How the values were obtained:
Assay in all cases: relative viability (nuclei count vs DMSO), 5 days (fraction); higher = more cells survive
[1] = compound: C=CC(=O)Nc1cc(-n2c(=O)ccc3cnc4ccc(-c5ccc(NS(C)(=O)=O)cc5)cc4c32)ccc1C [BMX-IN-1] + Nc1ncn([C@H]2C[C@H](O)[C@@H](CO)O2)c(=O)n1 [Decitabine] (partner 2 µM)
Summary of the method: (§1)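 Relative viability divides the nuclei count in treated wells by that in vehicle wells. Lung cancer cell lines were seeded in 1536-well plates, dosed by pin tool the next day, and fixed and stained after 5 days in one step with final 0.05% Triton X-100, 1% formaldehyde and 1 ug/ml Hoechst. Dosing was a single drug or a fixed anchor-drug dose plus five library-drug doses (not always all listed) in √10 steps, and values are medians of duplicate plates imaged at 4×.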

[2] = compound: C=CCc1cccc(/C=N/NC(=O)CN2CCN(Cc3ccccc3)CC2)c1O [PAC-1] + CCNC(=O)c1noc(-c2cc(C(C)C)c(O)cc2O)c1-c1ccc(CN2CCOCC2)cc1 [Luminespib] (partner 0.01 µM)
Summary of the method: as §1

[3] = compound: C=CC(=O)N1CCC[C@@H](n2nc(-c3ccc(Oc4ccccc4)cc3)c3c(N)ncnc32)C1 [Ibrutinib] + C[C@@H](Oc1cc(-c2cnn(C3CCNCC3)c2)cnc1N)c1c(Cl)ccc(F)c1Cl [Crizotinib] (partner 1 µM)
Summary of the method: as §1

[4] = compound: C=CC(=O)N1CCC[C@@H](n2nc(-c3ccc(Oc4ccccc4)cc3)c3c(N)ncnc32)C1 [Ibrutinib] + CC(C)C[C@H](NC(=O)[C@H](Cc1ccccc1)NC(=O)c1cnccn1)B(O)O [Bortezomib] (partner 0.002 µM)
Summary of the method: as §1

| Cell Line | relative viability ([1]; first compound 0.02 µM) | relative viability ([1]; first compound 0.2 µM) | relative viability ([1]; first compound 0.6325 µM) | relative viability ([1]; first compound 2 µM) | relative viability ([2]; first compound 0.02 µM) | relative viability ([2]; first compound 0.06325 µM) | relative viability ([2]; first compound 0.2 µM) | relative viability ([2]; first compound 2 µM) | relative viability ([3]; first compound 0.005 µM) | relative viability ([3]; first compound 0.01581 µM) | relative viability ([3]; first compound 0.05 µM) | relative viability ([3]; first compound 0.1581 µM) | relative viability ([3]; first compound 0.5 µM) | relative viability ([4]; first compound 0.005 µM) | relative viability ([4]; first compound 0.01581 µM) | relative viability ([4]; first compound 0.05 µM) | relative viability ([4]; first compound 0.1581 µM) | relative viability ([4]; first compound 0.5 µM) |
| --- | --- | --- | --- | --- | --- | --- | --- | --- | --- | --- | --- | --- | --- | --- | --- | --- | --- | --- |
| COR-L 105 | 0.563 | 0.671 | 0.654 | 0.672 | 0.769 | 0.788 | 0.627 | 0.725 | 0.654 | 0.846 | 0.472 | 0.9 | 0.235 | 0.514 | 0.607 | 0.512 | 0.683 | 0.348 |
| LOU-NH91 |  | 0.799 | 0.842 | 0.828 | 0.312 | 0.271 | 0.352 | 0.322 | 0.697 | 0.557 | 0.666 | 0.738 | 0.526 | 0.509 | 0.553 | 0.513 | 0.476 | 0.478 |
| PC-3 [JPC-3] | 0.84 | 0.754 | 0.816 | 0.885 | 0.774 | 0.644 | 0.53 | 0.664 | 0.988 | 0.907 | 0.975 | 0.987 | 0.6 | 0.837 | 0.805 | 0.831 | 0.826 | 0.635 |
| NCI-H2228 |  |  |  |  | 0.16 | 0.146 | 0.162 | 0.182 | 0.4 | 0.359 | 0.36 | 0.569 | 0.359 | 0.996 | 0.989 | 1.13 | 1.37 | 0.92 |
| NCI-H1650 | 0.438 | 0.385 | 0.473 | 0.548 | 0.191 | 0.199 | 0.209 | 0.191 | 0.845 | 0.919 | 0.934 | 1.09 | 0.744 | 0.22 | 0.216 | 0.23 | 0.203 | 0.22 |
| LCLC-103H | 0.795 | 0.782 | 0.714 | 0.689 | 1.06 | 0.932 | 0.981 | 0.911 | 1.06 | 1.03 | 1.02 | 1.06 | 1.04 | 0.999 | 1.01 | 1.07 | 0.986 | 1.05 |
| HCC-15 | 0.721 | 0.651 | 0.652 | 0.713 | 0.447 | 0.37 | 0.355 | 0.279 | 0.889 | 0.785 | 0.873 | 0.828 | 0.837 | 1.13 |  |  |  | 1.1 |
| NCI-H1703 |  |  |  |  |  |  |  |  |  |  | 0.839 | 0.934 | 0.729 | 0.374 | 0.308 | 0.332 | 0.409 | 0.231 |
| NCI-H2342 | 0.698 | 0.751 | 0.748 | 0.742 | 0.655 | 0.82 | 0.759 | 0.777 |  |  |  |  |  |  |  |  |  |  |
